US20240384350A1, “METHODS OF TREATING CANCER WITH KINASE INHIBITORS” (BOARD OF REGENTS, THE UNIVERSITY OF TEXAS SYSTEM, priority 2021, published 2024)

What was measured:
Test in all cases: Ba/F3 drug screening, Cell Titer Glo, IC50 Mut/WT
Format in all cases: cell-based
EGFR Ex19del/L792H = target: T1, EGFR Ex19del/L792H (Homo sapiens, UniProt P00533, DEL746-750/L792H)
T1 construct: expressed in transfected cells; host or cells: Ba/F3

EGFR S768dupSVD = target: T2, EGFR S768dupSVD (Homo sapiens, UniProt P00533, DUP768-770); settings: Ex20, 72 hours
T2 construct: expressed in transfected cells; host or cells: Ba/F3 cells, retroviral pBabe-Puro vector

EGFR D770insNPG = target: T3, EGFR D770insNPG (Homo sapiens, UniProt P00533, INS770NPG); settings: Ex20, 72 hours
T3 construct: expressed in transfected cells; host or cells: Ba/F3 cells, retroviral pBabe-Puro vector
Procedure: (§1) Data represent the ratio of the IC50 value for a given TKI for cells with an ex20ins EGFR mutation to the IC50 value for cells with wildtype EGFR.
(§2) Ba/F3 cell generation, drug screening, and IC50 approximations. Ba/F3 cells were obtained as a gift from Dr. Gordon Mills (MD Anderson Cancer Center), and maintained in RPMI (Sigma) containing 10% FBS, 1% penicillin/streptomycin, and 10 ng/ml recombinant mIL-3 (R&D Biosystems). To establish stable Ba/F3 cell lines, Ba/F3 cells were transduced with retroviruses containing mutant EGFR plasmids for 12-24 hours.
(§3) After 48-72 hours of transduction, 2 μg/ml puromycin (Invitrogen) was added to Ba/F3 cell lines in complete RPMI. To select for EGFR positive cell lines, cells were stained with PE-EGFR (Biolegend) and sorted by FACS. After sorting, EGFR positive cells were maintained in RPMI containing 10% FBS, 1% penicillin/streptomycin, and 1 ng/ml EGF to support cell viability. Drug screening was performed as previously described^41,42. Shortly, cells were plated in 384-well plates (Greiner Bio-One) at 2000-3000 cells per well in technical triplicate. Seven different concentrations of TKIs or DMSO vehicle were added to reach a final volume of 40 μL per well. After 72 hours, 11 μL of Cell Titer Glo (Promega) was added to each well. Plates were incubated for a minimum of 10 minutes, and bioluminescence was determined using a FLUOstar OPTIMA plate reader (BMG LABTECH). Raw bioluminescence values were normalized to DMSO control treated cells, and values were plotted in GraphPad Prism. […] Drug screens were performed in technical triplicate on each plate and either duplicate or triplicate biological replicates. […] Statistical differences between groups were determined by ANOVA as described in the figure legends.

EGFR E709K L858R = target: T4, EGFR E709K L858R (Homo sapiens, UniProt P00533, E709K/L858R); settings: Classical-Like, 72 hours
T4 construct: expressed in transfected cells; host or cells: Ba/F3 cells, retroviral pBabe-Puro vector
Procedure: (§4) Data represent the ratio of the IC50 value for a given TKI for cells with a classical-like EGFR mutation to the IC50 value for cells with wildtype EGFR.
as §2
(§5) After 48-72 hours of transduction, 2 μg/ml puromycin (Invitrogen) was added to Ba/F3 cell lines in complete RPMI. To select for EGFR positive cell lines, cells were stained with PE-EGFR (Biolegend) and sorted by FACS. After sorting, EGFR positive cells were maintained in RPMI containing 10% FBS, 1% penicillin/streptomycin, and 1 ng/ml EGF to support cell viability. […] Shortly, cells were plated in 384-well plates (Greiner Bio-One) at 2000-3000 cells per well in technical triplicate. Seven different concentrations of TKIs or DMSO vehicle were added to reach a final volume of 40 μL per well. After 72 hours, 11 μL of Cell Titer Glo (Promega) was added to each well. Plates were incubated for a minimum of 10 minutes, and bioluminescence was determined using a FLUOstar OPTIMA plate reader (BMG LABTECH). Raw bioluminescence values were normalized to DMSO control treated cells, and values were plotted in GraphPad Prism. […] Drug screens were performed in technical triplicate on each plate and either duplicate or triplicate biological replicates.

EGFR E709K G719S = target: T5, EGFR E709K G719S (Homo sapiens, UniProt P00533, E709K/G719S)
T5 construct: expressed in transfected cells; host or cells: Ba/F3

EGFR S768I = target: T6, EGFR S768I (Homo sapiens, UniProt P00533, S768I)
T6 construct: expressed in transfected cells; host or cells: Ba/F3
Procedure: (§6) Data represent the ratio of the IC50 value for a given TKI for cells with a PACC EGFR mutation to the IC50 value for cells with wildtype EGFR.
as §2, §3

EGFR L858R G724S = target: T7, EGFR L858R G724S (Homo sapiens, UniProt P00533, G724S/L858R)
T7 construct: expressed in transfected cells; host or cells: Ba/F3 (retroviral transduction, pBabe-Puro based vectors)
Procedure: as §6, §2
(§7) After 48-72 hours of transduction, 2 μg/ml puromycin (Invitrogen) was added to Ba/F3 cell lines in complete RPMI. To select for EGFR positive cell lines, cells were stained with PE-EGFR (Biolegend) and sorted by FACS. After sorting, EGFR positive cells were maintained in RPMI containing 10% FBS, 1% penicillin/streptomycin, and 1 ng/ml EGF to support cell viability. Drug screening was performed as previously described^41,42. Shortly, cells were plated in 384-well plates (Greiner Bio-One) at 2000-3000 cells per well in technical triplicate. Seven different concentrations of TKIs or DMSO vehicle were added to reach a final volume of 40 μL per well. After 72 hours, 11 μL of Cell Titer Glo (Promega) was added to each well. Plates were incubated for a minimum of 10 minutes, and bioluminescence was determined using a FLUOstar OPTIMA plate reader (BMG LABTECH). Raw bioluminescence values were normalized to DMSO control treated cells, and values were plotted in GraphPad Prism. […] Drug screens were performed in technical triplicate on each plate and either duplicate or triplicate biological replicates.

EGFR L858R T790M V843I = target: T8, EGFR L858R T790M V843I (Homo sapiens, UniProt P00533, L858R/T790M/V843I); settings: T790M-like-3S, 72 hours
T8 construct: expressed in transfected cells; host or cells: Ba/F3
Procedure: Data represent the ratio of the IC50 value for a given TKI for cells with a T790M-like-3S EGFR mutation to the IC50 value for cells with wildtype EGFR.
as §2, §7

EGFR Ex19del/C797S = target: T9, EGFR Ex19del/C797S (Homo sapiens, UniProt P00533, C797S/DEL746-750)
T9 construct: expressed in transfected cells; host or cells: Ba/F3
Procedure: as §6, §2, §7

EGFR L861Q = target: T10, EGFR L861Q (Homo sapiens, UniProt P00533, L861Q); settings: Classical-Like, 72 hours
T10 construct: expressed in transfected cells; host or cells: Ba/F3 cells, retroviral pBabe-Puro vector

EGFR S784F = target: T11, EGFR S784F (Homo sapiens, UniProt P00533, S784F); settings: Classical-Like, 72 hours
T11 construct: expressed in transfected cells; host or cells: Ba/F3 cells, retroviral pBabe-Puro vector (vector made by GeneScript from EGFR WT)

EGFR G719S = target: T12, EGFR G719S (Homo sapiens, UniProt P00533, G719S)
T12 construct: expressed in transfected cells; host or cells: Ba/F3
Procedure: as §6, §2, §7

EGFR A763insFQEA = target: T13, EGFR A763insFQEA (Homo sapiens, UniProt P00533, INS763FQEA); settings: Classical-Like, 72 hours
T13 construct: expressed in transfected cells; host or cells: Ba/F3 cells, retroviral pBabe-Puro vector

EGFR K754E = target: T14, EGFR K754E (Homo sapiens, UniProt P00533, K754E); settings: Classical-Like, 72 hours
T14 construct: expressed in transfected cells; host or cells: Ba/F3 cells, retroviral pBabe-Puro vector
Procedure: as §4, §2, §5

EGFR Ex19del T790M C797S = target: T15, EGFR Ex19del T790M C797S (Homo sapiens, UniProt P00533, C797S/DEL746-750/T790M); settings: T790M-like-3R, 72 hours
T15 construct: expressed in transfected cells; host or cells: Ba/F3
Procedure: (§8) Data represent the ratio of the IC50 value for a given TKI for cells with a T790M-like-3R EGFR mutation to the IC50 value for cells with wildtype EGFR.
as §2
(§9) After 48-72 hours of transduction, 2 μg/ml puromycin (Invitrogen) was added to Ba/F3 cell lines in complete RPMI. To select for EGFR positive cell lines, cells were stained with PE-EGFR (Biolegend) and sorted by FACS. After sorting, EGFR positive cells were maintained in RPMI containing 10% FBS, 1% penicillin/streptomycin, and 1 ng/ml EGF to support cell viability. […] Shortly, cells were plated in 384-well plates (Greiner Bio-One) at 2000-3000 cells per well in technical triplicate. Seven different concentrations of TKIs or DMSO vehicle were added to reach a final volume of 40 μL per well. After 72 hours, 11 μL of Cell Titer Glo (Promega) was added to each well. Plates were incubated for a minimum of 10 minutes, and bioluminescence was determined using a FLUOstar OPTIMA plate reader (BMG LABTECH). Raw bioluminescence values were normalized to DMSO control treated cells, and values were plotted in GraphPad Prism. […] Drug screens were performed in technical triplicate on each plate and either duplicate or triplicate biological replicates. […] Statistical differences between groups were determined by ANOVA as described in the figure legends.

EGFR S720P = target: T16, EGFR S720P (Homo sapiens, UniProt P00533, S720P); settings: Classical-Like, 72 hours
T16 construct: expressed in transfected cells; host or cells: Ba/F3 cells, retroviral pBabe-Puro vector (vector made by GeneScript from EGFR WT)

EGFR K757R = target: T17, EGFR K757R (Homo sapiens, UniProt P00533, K757R)
T17 construct: expressed in transfected cells; host or cells: Ba/F3

EGFR R776C = target: T18, EGFR R776C (Homo sapiens, UniProt P00533, R776C)
T18 construct: host or cells: Ba/F3
Procedure: as §6, §2, §7

EGFR L718Q T790M = target: T19, EGFR L718Q T790M (Homo sapiens, UniProt P00533, L718Q/T790M); settings: T790M-like-3R, 72 hours
T19 construct: expressed in transfected cells; host or cells: Ba/F3
Procedure: as §8, §2, §9

EGFR V769L = target: T20, EGFR V769L (Homo sapiens, UniProt P00533, V769L)
T20 construct: expressed in transfected cells; host or cells: Ba/F3
Procedure: as §6, §2, §7

EGFR Ex19del/T790M/L792H = target: T21, EGFR Ex19del/T790M/L792H (Homo sapiens, UniProt P00533, DEL746-750/L792H/T790M); settings: T790M-like-3R, 72 hours
T21 construct: expressed in transfected cells; host or cells: Ba/F3

EGFR S768I V774M = target: T22, EGFR S768I V774M (Homo sapiens, UniProt P00533, S768I/V774M)
T22 construct: host or cells: Ba/F3

EGFR T725M = target: T23, EGFR T725M (Homo sapiens, UniProt P00533, T725M); settings: Classical-Like, 72 hours
T23 construct: expressed in transfected cells; host or cells: Ba/F3 cells, retroviral pBabe-Puro vector (vector made by GeneScript from EGFR WT)

EGFR L858R/T790M/C797S = target: T24, EGFR L858R/T790M/C797S (Homo sapiens, UniProt P00533, C797S/L858R/T790M); settings: T790M-like-3R, 72 hours
T24 construct: expressed in transfected cells; host or cells: Ba/F3
Procedure: as §8, §2, §9

EGFR S811F = target: T25, EGFR S811F (Homo sapiens, UniProt P00533, S811F); settings: Classical-Like, 72 hours
T25 construct: expressed in transfected cells; host or cells: Ba/F3 cells, retroviral pBabe-Puro vector (vector made by GeneScript from EGFR WT)

EGFR N771dupN = target: T26, EGFR N771dupN (Homo sapiens, UniProt P00533, DUP771-771); settings: Ex20, 72 hours
T26 construct: expressed in transfected cells; host or cells: Ba/F3 cells, retroviral pBabe-Puro vector
Procedure: as §1, §2, §3

EGFR Ex19del L718V = target: T27, EGFR Ex19del L718V (Homo sapiens, UniProt P00533, DEL746-750/L718V)
T27 construct: expressed in transfected cells; host or cells: Ba/F3
Procedure: as §6, §2, §7

Row | SMILES | ratio of IC50 for cells with mutant EGFR to IC50 for cells with wildtype EGFR (Mut/WT) (EGFR S768dupSVD) | ratio of IC50 for cells with mutant EGFR to IC50 for cells with wildtype EGFR (Mut/WT) (EGFR D770insNPG) | ratio of IC50 for cells with mutant EGFR to IC50 for cells with wildtype EGFR (Mut/WT) (EGFR E709K L858R) | ratio of IC50 for cells with mutant EGFR to IC50 for cells with wildtype EGFR (Mut/WT) (EGFR L858R T790M V843I) | ratio of IC50 for cells with mutant EGFR to IC50 for cells with wildtype EGFR (Mut/WT) (EGFR L861Q) | ratio of IC50 for cells with mutant EGFR to IC50 for cells with wildtype EGFR (Mut/WT) (EGFR S784F) | ratio of IC50 for cells with mutant EGFR to IC50 for cells with wildtype EGFR (Mut/WT) (EGFR A763insFQEA) | ratio of IC50 for cells with mutant EGFR to IC50 for cells with wildtype EGFR (Mut/WT) (EGFR K754E) | ratio of IC50 for cells with mutant EGFR to IC50 for cells with wildtype EGFR (Mut/WT) (EGFR Ex19del T790M C797S) | ratio of IC50 for cells with mutant EGFR to IC50 for cells with wildtype EGFR (Mut/WT) (EGFR S720P) | ratio of IC50 for cells with mutant EGFR to IC50 for cells with wildtype EGFR (Mut/WT) (EGFR L718Q T790M) | ratio of IC50 for cells with mutant EGFR to IC50 for cells with wildtype EGFR (Mut/WT) (EGFR Ex19del/T790M/L792H) | ratio of IC50 for cells with mutant EGFR to IC50 for cells with wildtype EGFR (Mut/WT) (EGFR T725M) | ratio of IC50 for cells with mutant EGFR to IC50 for cells with wildtype EGFR (Mut/WT) (EGFR L858R/T790M/C797S) | ratio of IC50 for cells with mutant EGFR to IC50 for cells with wildtype EGFR (Mut/WT) (EGFR S811F) | ratio of IC50 for cells with mutant EGFR to IC50 for cells with wildtype EGFR (Mut/WT) (EGFR N771dupN) | also measured
1 | C=CC(=O)N[C@H]1C=C(C)c2c(-c3cnc4ccccc4c3)c3c(N)ncnc3n2C1 [TAS 6417] | 0.05773 | 0.0168 | 0.002607 | 0.07336 | 0.02761 | 0.01015 | 0.004982 | 0.004475 | 3.055 | 0.01035 | 0.02624 | 0.0002637 | 0.02572 | 4.897 | 0.009026 | 0.05134 | ratio of the IC50 value for cells with a PACC EGFR mutation to the IC50 value for cells with wildtype EGFR (EGFR Ex19del/L792H; Ba/F3 cells, EGFR Ex19del/L792H (PACC), Mut/WT): 0.008269; ratio of the IC50 value for cells with a PACC EGFR mutation to the IC50 value for cells with wildtype EGFR (EGFR E709K G719S; Ba/F3 cells, EGFR E709K G719S (PACC), Mut/WT): 0.007578; ratio of the IC50 value for cells with a PACC EGFR mutation to the IC50 value for cells with wildtype EGFR (EGFR S768I; Ba/F3 cells, EGFR S768I (PACC), Mut/WT): 0.0846; ratio of the IC50 value for cells with a PACC EGFR mutation to the IC50 value for cells with wildtype EGFR (EGFR L858R G724S; Ba/F3 cells, EGFR L858R G724S (PACC), Mut/WT): 0.01631; ratio of the IC50 value for cells with a PACC EGFR mutation to the IC50 value for cells with wildtype EGFR (EGFR Ex19del/C797S; Ba/F3 cells, EGFR Ex19del/C797S (PACC), Mut/WT): 1.093; ratio of the IC50 value for cells with a PACC EGFR mutation to the IC50 value for cells with wildtype EGFR (EGFR G719S; Ba/F3 cells, EGFR G719S (PACC), Mut/WT): 0.01675; ratio of the IC50 value for cells with a PACC EGFR mutation to the IC50 value for cells with wildtype EGFR (EGFR K757R; Ba/F3 cells, EGFR K757R (PACC), Mut/WT): 0.4608; ratio of the IC50 value for cells with a PACC EGFR mutation to the IC50 value for cells with wildtype EGFR (EGFR R776C; Ba/F3 cells, EGFR R776C (PACC), Mut/WT): 0.1072; ratio of the IC50 value for cells with a PACC EGFR mutation to the IC50 value for cells with wildtype EGFR (EGFR V769L; Ba/F3 cells, EGFR V769L (PACC), Mut/WT): 0.159; ratio of the IC50 value for cells with a PACC EGFR mutation to the IC50 value for cells with wildtype EGFR (EGFR S768I V774M; Ba/F3 cells, EGFR S768I V774M (PACC), Mut/WT): 0.3996; ratio of the IC50 value for cells with a PACC EGFR mutation to the IC50 value for cells with wildtype EGFR (EGFR Ex19del L718V; Ba/F3 cells, EGFR Ex19del L718V (PACC), Mut/WT): 0.0009364
2 | CN(C)C/C=C/C(=O)Nc1cc2c(Nc3ccc(Cl)c(Br)c3)ncnc2cn1 [Tarlox-TKI] | 0.3065 | 5.023 | 0.005792 | 70.97 | 0.05346 | 0.01816 | 0.05463 | 0.00723 | 33.62 | 0.02412 | 16.46 | 74.97 | 0.004861 | 20.7 | 0.1118 | 7.062 | ratio of IC50 for cells with mutant EGFR to IC50 for cells with wildtype EGFR (Mut/WT) (EGFR Ex19del/L792H; PACC, Ex19del/L792H, Ba/F3, 72 hours): 1.041; ratio of IC50 for cells with mutant EGFR to IC50 for cells with wildtype EGFR (Mut/WT) (EGFR E709K G719S; PACC, E709K G719S, Ba/F3, 72 hours): 0.06517; ratio of IC50 for cells with mutant EGFR to IC50 for cells with wildtype EGFR (Mut/WT) (EGFR S768I; PACC, S768I, Ba/F3, 72 hours): 0.3863; ratio of IC50 for cells with mutant EGFR to IC50 for cells with wildtype EGFR (Mut/WT) (EGFR L858R G724S; PACC, L858R G724S, Ba/F3, 72 hours): 0.02628; ratio of IC50 for cells with mutant EGFR to IC50 for cells with wildtype EGFR (Mut/WT) (EGFR Ex19del/C797S; PACC, Ex19del/C797S, Ba/F3, 72 hours): 0.2272; ratio of IC50 for cells with mutant EGFR to IC50 for cells with wildtype EGFR (Mut/WT) (EGFR G719S; PACC, G719S, Ba/F3, 72 hours): 0.002634; ratio of IC50 for cells with mutant EGFR to IC50 for cells with wildtype EGFR (Mut/WT) (EGFR K757R; PACC, K757R, Ba/F3, 72 hours): 0.3019; ratio of IC50 for cells with mutant EGFR to IC50 for cells with wildtype EGFR (Mut/WT) (EGFR R776C; PACC, R776C, Ba/F3, 72 hours): 0.02009; ratio of IC50 for cells with mutant EGFR to IC50 for cells with wildtype EGFR (Mut/WT) (EGFR V769L; PACC, V769L, Ba/F3, 72 hours): 0.3024; ratio of IC50 for cells with mutant EGFR to IC50 for cells with wildtype EGFR (Mut/WT) (EGFR S768I V774M; PACC, S768I V774M, Ba/F3, 72 hours): 0.2117; ratio of IC50 for cells with mutant EGFR to IC50 for cells with wildtype EGFR (Mut/WT) (EGFR Ex19del L718V; PACC, Ex19del L718V, Ba/F3, 72 hours): 0.1214
